Measured values published in patent US20240299542A1, “NATURAL KILLER CELLS ENGINEERED TO REDUCE OR ELIMINATE CBL-B AND USES THEREOF” (City of Hope, priority 2021, published 2024).

How the values were obtained:
Type in all cases: cell-based, human
[1] = test system: Molm-13, MV4-11 or EOL-1 leukemia cell lines
Protocol: (§1) FIGS. 3A-3E depict the results of a study showing that downregulation of Cbl-b enhances the cytotoxicity of primary human NK cells. (FIGS. 3A and 3B) Primary human NK cells transduced with Cbl-b siRNA or Scr siRNA for 24 h were stimulated without (FIG. 3A) or with (FIG. 3B) a low concentration of IL-15 (2 ng/ml) for 16 h, then co-cultured with ^51Cr labeled Molm-13, MV4-11 or EOL-1 leukemia cell lines for 4 h, followed by quantification of specific tumor cell lysis. Each experiment was repeated with 6 different normal donors. (FIG. 3C) qRT-PCR was performed to quantify the granzyme B (GZMB) mRNA levels (n=8 donors) in siRNA- and Scr siRNA-transduced primary human NK cells incubated without or with IL-15 (10 ng/ml) for 16 h. (FIG. 3D) The concentration of the granzyme B protein in the supernatants of Cbl-b siRNA- and Scr siRNA-transduced primary human NK cells incubated without (688.1 pg/ml vs 525.4 pg/ml; P=0.0232) or with IL-15 (10 ng/ml) for 24 h (8789 pg/ml vs 3397 pg/ml; P=0.0232) was measured by ELISA (n=8 donors). (FIG. 3E) The level of granzyme B protein in Cbl-b siRNA- and Scr siRNA-transduced primary human NK cells incubated without or with IL-15 (10 ng/ml) for 24 h was measured by immunoblot analysis. The data are representative of three experiments. Scr-scrambled; *P<0.05, **P<0.01, ***P<0.001, ****P<0.0001 by One-way or Two-way ANOVA; ns, not significant. […]

[2] = test system: granzyme B; test: Granzyme B (GZMB) mRNA by qRT-PCR in siRNA-transduced NK cells; settings: without or with IL-15 (10 ng/ml) 16 h, vs Scr siRNA
Protocol: as §1

[3] = test system: perform; test: Perforin mRNA by qRT-PCR in siRNA-transduced NK cells; settings: without or with IL-15 (10 ng/ml) 16 h, vs Scr siRNA
Protocol: FIG. 8A Primary human NK cells were transduced with Cbl-b siRNA or a scrambled siRNA (Scr siRNA) for 48 h, directly followed by immunoblot analysis to determine the efficiency of siRNA (n=3 donors). […] FIG. 8B qRT-PCR was performed to quantify the level of perform mRNA (n=7 donors) in Cbl-b siRNA- and Scr siRNA-transduced primary human cells incubated without or with IL-15 (10 ng/ml) for 16 h. FIG. 8C The perform protein level in Cbl-b siRNA- and Scr siRNA-transduced primary human NK cells incubated 24 without or with IL-15 (10 ng/ml) for 24 h was measured by immunoblot analysis. The data are representative of four experiments and are summarized in the right panel. Scr, scrambled; *P<0.05, **P<0.01; ns, not significant. Data are presented as mean±SEM.
(§2) Reverse transcription-polymerase chain reaction. Total RNA was isolated from primary NK cells with the RNeasy Mini Kit (Qiagen). Complementary DNA (cDNA) was generated by Moloney murine leukemia virus (M-MLV) reverse transcriptase (Invitrogen) and amplified by qPCR with SYBR Green PCR Master Mix (Applied Biosystems) and gene-specific primers. Relative amplification values were normalized to the amplification of GAPDH or 18S rRNA.
Both groups were next incubated without or with IL-15 and co-cultured with ^51Cr labeled MV4-11, Molm-13, or EOL-1 leukemia cell lines, followed by assessment of specific lysis measured after 4 h of co-culture.

[4] = test system: IFN-γ; test: IFN-γ mRNA by qRT-PCR in IL-15-activated siRNA-transduced NK cells; settings: IL-15 (10 ng/ml) 6 h, vs Scr siRNA
Protocol: FIGS. 4A-4D depict the results of a study showing that downregulation of Cbl-b increases IFN-γ secretion in IL-15-activated primary human NK cells. (FIG. 4A) RNAseq was conducted using primary human NK cells transduced with either Cbl-b siRNA or Scr siRNA without or with incubation in IL-15 (10 ng/ml) for 16 h (4 donors for each group). […] (FIG. 4B) qRT-PCR was performed to quantify the mRNA levels of IFN-γ (n=6 donors) after IL-15 (10 ng/ml) 6 h stimulation. (FIG. 4C) The percentage of intracellular IFN-γ+ cells in un-transduced NK cells or those transduced with Cbl-b siRNA or Scr siRNA, each activated with IL-15 (10 ng/ml) for 24 h (11.5% vs 4.338%; P=0.0008; n=5 donors). (FIG. 4D) Supernatants were collected after IL-15 (10 ng/ml) for 24 h and IFN-γ concentrations measured by ELISA (18115 pg/ml vs 882.5 pg/ml; P=0.0099; n=7 donors). Scr-scrambled; *P<0.05, **P<0.01, ***P<0.001 by Student's two-tailed paired t-test or One-way ANOVA; ns, not significant. Data presented as mean±SEM.
as §2, with “Relative amplification values were normalized to the amplification of GAPDH or 18S rRNA.” left out

Substance: Cbl-b siRNA: Cbl-b-specific Accell siRNA (Dharmacon), SEQ ID NO:1, CCUUCAUGUUCAGAUGGUU (Accell modified siRNA, pattern not given here)
- cytotoxicity (specific lysis) without IL-15 [1]: significant increase in cytotoxicity against three of the four AML cell lines
- Granzyme B mRNA [2]: significantly increased
- perform mRNA [3]: did not reach a statistical significance
- IFN-γ mRNA [4]: increased dramatically
